Measured values from patent US11491132B2, “Methods for treating thrombocytopenia” (Enzychem Lifesciences Corporation, priority 2014, dated 2022).

Experiments:
C3 [1] = experiment: C3 expression in IL-4/TNF-α treated HMC-1 cells, RT-PCR; format: cell-based, human; settings: HMC-1 cells treated with IL-4 and TNF-α; PLAG 0.1 and 1 μg/mL pre-treatment, or S6I
Experimental: A blood cell line, HMC-1 (human mast cell, American Type Culture Collection, ATCC, Rockville, Md.) is incubated and maintained at 37° C. under 5% CO2 humid conditions. The medium is IMDM (Life Technologies, Karlsruhe, Germany) containing 10% Fetal Calf Serum (FCS, HyClone, Logan, Utah), 2 mM […], 100 μg/ml penicillin, 100 μg/ml streptomycin (Life Technologies). The cultured HMC-1 cells (1×10^6 cell/ml) are pre-treated with 0.1 and 1 μg/mL concentration of PLAG, followed by treating with IL-4 (5 ng) and/or TNF-α (10 ng) to induce cellular activities.
The expressed C3 and its mRNA level change are observed by using RT-PCR (Reverse Transcriptase Polymerase Chain Reaction). The RT-PCR is carried out as follows: the total RNA is separated by the standard protocol and cDNA is synthesized using AccuScript High Fidelity 1st Strand cDNA Synthesis Kit (Stratagene) by the manufacturer's instructions. Two-step RT-PCR reaction is conducted using Oligo-dT primer and reverse transcriptase, pair of primer and Taq polymerase (Takara, Shiga, Japan). […] The product of PCR is separated using 1.5% agarose gel, dyed with ethidium bromide (EtBr), and visualized with Gel Doc 2000 UV trans-illuminator (Bio-Rad Laboratories, Hercules, Calif., USA), and the experimental data is analyzed using Quantity One software (Bio-Rad Laboratories).

C3 [2] = experiment: C3 expression in HepG2 cell line, RT-PCR of mRNA; format: cell-based, human; settings: HepG2 cells, S6I 10 and 100 microgram/ml, relative to PLAG 1 and 10 microgram/ml
Experimental: A liver cell line, HepG2 (American Type Culture Collection, ATCC, Rockville, Md.), is incubated and maintained at 37° C., 5% CO2 humid atmosphere in DMEM medium. When HepG2 cells, which are known to produce complement in culture, are treated with PLAG, the activity of complement is reduced effectively, as confirmed by RT-PCR of mRNA. In the RT-PCR, 5×10^5 number of HepG2 cells/ml are distributed into 12 well plates and induced C3 for 12 hours with 10% FCS. Then PLAG is added and further cultured for 2 hours. Cells are harvested and mRNA is isolated and RT-PCR is carried out with specific primer of C3; GAPDH is used as an internal control.

[3] = system: white blood cells and neutrophils; experiment: PLAG in combination with G-CSF in cyclophosphamide-treated mouse model; format: in vivo, mice; settings: cyclophosphamide 100 mpk i.p. ten days; G-CSF 0.25 mpk i.p.; PLAG 25 mpk p.o.
Excerpt: Mice receive cyclophosphamide (100 mpk, i.p.) for a period of ten days, with or without G-CSF (0.25 mpk, i.p.) or G-CSF (0.25 mpk, i.p.) plus PLAG (25 mpk, p.o.): […]

Compound | expression of C3 (C3 [1]) | inhibition of C3 expression (RT-PCR) (C3 [2]) | Neutrophils [3] [k/μl] | White blood cells (WBCs) [3] [k/μl]
NC(=O)c1cnc(NCCc2ccc(O)c(Cl)c2)nc1NCc1ccccc1 [S6I, reference compound] | suppresses expression of C3 | comparable |  | 
G-CSF: Granulocyte-colony stimulating factor, a glycoprotein that stimulates hematopoietic precursor cells in the bone marrow |  |  | 4.36 | 5.37
